Series [1] can be described thus: Partition coefficient based on the octanol extraction method (logPoctanol). Particulars: octanol / 10 mmol/L phosphate buffer (pH 7.4).
Method: 10 μL each of the prepared sample solution was respectively added to 2 mL of octanol, further, 2 mL of 10 mmol/L phosphate buffer (pH 7.4) was added, and stirred for 30 seconds. After the mixture was centrifuged with a low-speed centrifuge (2000 rpm×60 min.), the octanol layer and the water layer were sampled each in an amount of 1 mL, and subjected to measurement of radioactivity count with an autowell gamma system (Type: ARC-301B, manufactured by Aloka). Using the obtained radioactivity count, logPoctanol was calculated in accordance with the equation (2).
Series [2] relates to intracerebral amyloid (aggregated Aβ1-42). Nature of the series: Confirmation of imaging of amyloid in brain (autoradiogram of brain slice, amyloid injected into amygdaloid nucleus). It is filed as in vivo, male Wistar rat. Particulars: rat, tail vein injection, brain removed 60 minutes after injection. The procedure: (§1) The following experiment was carried out in order to examine whether amyloid in brain can be imaged by the compound of the present invention.
(§2) (1) Aβ1-42 (Wako) was dissolved in phosphate buffer (pH 7.4) and shaken at 37° C. for 72 hours, to obtain a 1 mg/mL suspension of aggregated Aβ (hereinafter referred to as amyloid suspension in this Example).
(§3) (2) Under thiopental anesthesia, […] of the amyloid suspension was injected into an amygdaloid nucleus on one side of a male Wistar rat (7-week old). As a control, 2.5 μL of a phosphate buffered physiological saline solution (pH 7.4) was injected into an amygdaloid nucleus on the other side of the rat. The rats were examined 1 day after the injection of the amyloid suspension and the phosphate buffered physiological saline solution (pH 7.4).
(§4) This sample solution was injected under thiopental anesthesia into the rat through the tail vein (dosage: 0.5 mL, dosed radioactivity: 16 MBq equivalent).
(§5) (4) Brain was removed 60 minutes after the injection to prepare a brain slice of 10 μm in thickness with a microtome (type: CM3050S, manufactured by LEICA). The brain slice was exposed to an imaging plate for 20 hours, and then image analysis was carried out by use of a Bio-imaging Analyzer (type: BAS-2500; manufactured by FUJIFILM Corporation).

Series [3] concerns the target T1, intracerebral amyloid (aggregated Aβ1-42) (Homo sapiens, UniProt P05067).
T1 construct: Aβ1-42 (Wako) was dissolved in phosphate buffer (pH 7.4); purchased Wako
The description is as above. The class given is in vivo, male Wistar rat. Particulars: rat, tail vein injection, brain removed 60 minutes after injection. The procedure: as §1, §2, §3, §4, §5

The nature of series [4]: Transferability into brain and clearance (radioactive accumulation in brain after intravenous injection). Particulars: rats. The procedure: Using [^123I]-2-(4′-iodophenyl)-6-methoxyimidazo[1,2-a]pyridine and [^123I]-2-(4′-fluorophenyl)-6-iodoimidazo[1,2-a]pyridine, a time course change of radioactive accumulation in brain of male Wistar rats (7-week old) was measured.
The rats were sacrificed by bleeding from abdominal artery, and brains were removed and subjected to measurement of mass of brains (hereinafter referred to as A in this Example) and further subjected to measurement of radioactivity with a single channel analyzer (detector type: SP-20 manufactured by OHYO KOKEN KOGYO Co., Ltd.) 2, 5, 30 and 60 minutes after the injection. Also, radioactivity (hereinafter referred to as B in this Example) of the rest of the whole body was measured in the same manner as above.
The same procedures as above was conducted and subjected to the same procedures as above to calculate radioactive accumulation per unit weight of a brain (% ID/g) at the respective time points were calculated.
Three animals were used for Example 15, Example 16 and Comparative Example 2 at the respective time points.

The source of these data is patent US20100216994A1, “USE OF NOVEL COMPOUND HAVING AFFINITY FOR AMYLOID, AND PROCESS FOR PRODUCTION OF THE SAME” (NIHON MEDI-PHYSICS CO., LTD., priority 2007, published 2010).

T1 sequence (P05067 672-713): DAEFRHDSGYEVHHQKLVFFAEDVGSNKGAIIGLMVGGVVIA

With `COc1ccc(-c2cn3cc([123I])ccc3n2)cc1` [[^123I]-6-iodo-2-(4′-methoxyphenyl)imidazo[1,2-a]pyridine], the logPoctanol value in series [1] is reported as 1.7. Moreover, in series [2], the “accumulation of radioactivity in amygdaloid nucleus on the side to which the physiological saline solution was injected” value is on record as “no significant accumulation of radioactivity”. Besides, the “accumulation of radioactivity in amygdaloid nucleus on the side to which the amyloid suspension was injected” value in series [3] is listed as “marked accumulation of radioactivity”. Besides, the “Radioactive accumulation per unit weight in brain” value is 1.04 % ID/g in series [4] (after 2 min.), 0.72 % ID/g in series [4] (after 5 min.), 0.12 % ID/g in series [4] (after 30 min.) and 0.04 % ID/g in series [4] (after 60 min.).

In the case of `CN(C)c1ccc(-c2cn3cc([123I])ccc3n2)cc1` [[^123I]-IMPY, reference compound], the logPoctanol value in series [1] was 1.9. Besides, the “Radioactive accumulation per unit weight in brain” value in series [4] (after 2 min.) worked out at 1.19 % ID/g; in series [4] (after 5 min.) it was 0.97 % ID/g; in series [4] (after 30 min.), 0.23 % ID/g; in series [4] (after 60 min.), 0.09 % ID/g.

The compound `Fc1ccc(-c2cn3cc([123I])ccc3n2)cc1` [[^123I]-2-(4′-fluorophenyl)-6-iodoimidazo[1,2-a]pyridine] had a logPoctanol value in series [1] of 2.3. The “accumulation of radioactivity in amygdaloid nucleus on the side to which the physiological saline solution was injected” value in series [2] was “no significant accumulation of radioactivity”. For the same compound, the “accumulation of radioactivity in amygdaloid nucleus on the side to which the amyloid suspension was injected” value in series [3] was “marked accumulation of radioactivity”. Also, the “Radioactive accumulation per unit weight in brain” value is listed as 1.00 % ID/g in series [4] (after 2 min.), 0.72 % ID/g in series [4] (after 5 min.), 0.12 % ID/g in series [4] (after 30 min.) and 0.05 % ID/g in series [4] (after 60 min.).
